“And” between values parts separate entries of the source, which are not always exact repeats. Equal entries are not always repeated. “Also recorded” adds a separate entry of the source.
What was measured:
[1] = molecular target: T1, cloned human 5-HT6 receptors (Homo sapiens, UniProt P50406); experiment: receptor-binding assay, 5-HT6 (3H-LSD, HEK 293 cells); details: for Ki: 3H-LSD 2.7 nM, HEK 293 cells
T1 construct: expressed in transfected cells
Procedure: (§1) In the receptor-binding assays, brain tissues from male Wistar rats weighing 120-200 g or cloned human 5-HT6 or D4 receptors were used. The protein contents of the membrane preparates were determined according to Lowry (Lowry O. H., Rosenbrough N. J., Farr A. L., Randall R. J., Protein measurement with the Folin-Phenol reagents. J Biol Chem, 193: 265-275 (1951).
(§2) The basic information with regard the receptor-binding assay is disclosed in Table 1. The binding assays were carried out according to the method of Leysen (Leysen J. E, Niemegeers C. J. E, Van Nueten J. M., Laduron P. M.: ^[3H]Ketanserin (R41468), a selective ^[3H]ligand for Serotonine2 receptor binding. Mol Pharmacol, 21: 301-314 (1981)). The tested compound was deemed to be effective in the case when the Ki value was smaller than 100 nM.

male DBA mice = experiment: Porsolt's test (antidepressant effect); format: in vivo, mouse; details: for Porsolt-test (model for antidepressant effect), MED: ip., 30 minutes before the test, p<0.05
Procedure: The antidepressant effect of the compounds of the Formula (I) has been established in Porsolt's test in male DBA mice weighing 20 to 25 grams. The swimming experiment was carried out in cylinders of 17.7 cm height and 12 cm diameter (Porsolt, R. D.: Behavioral despair. In: Enna, S. J., Malick, J. B., and Richelson, E. (eds.): “Antidepressants: Neurochemical, Behavioral, and Clinical Prespectives.” New York: Raven Press, 1981. pp. 121-139). In each experiment, four cylinders were used simultaneously. The animals were treated 30 minutes before the test with the test substances or with the vehicle in the dose of 1-3-10 mg/kg i.p. Animals were allowed to stay in the cylinder for six minutes. In the first two minutes, no measurement was made since this period was considered as the adaptation period. In the following four minutes (minutes 3 to 6 of the experiment) the time spent in immobile state was determined. The immobile time was registered for each animal with a precision of one second. The average was calculated for each group and the percentage effect was calculated for each treated group with reference for the control group. The statistical significance of the differences between groups was analyzed by […].
On the basis of the statistical significance determined for the difference of each dose from the control, MED (minimum effective dose) values were calculated. […] A significant decrease of time spent in immobility was interpreted as an antidepressant effect.

male NMRI mice = experiment: permanent focal cerebral ischemia model (neuroprotective effect); format: in vivo, mouse; details: ip., 30 minutes after surgery
Procedure: The neuroprotective effect of the compounds of the Formula (I) was tested in the permanent focal cerebral ischemia model according to the modified method of Karkoutly and coworkers (Karkoutly, C., Backhauss, C., Nuglisch, J., Krieglstein, J.: The measurement of the infarcted area after middle cerebral artery occlusion in the mouse: a screening model. In Krieglstein, J., Oberpichler, H. ed. Pharmacology of Cerebral Ischemia 1990. Wissenschaftliche Verlagsgesellschaft mbH Stuttgart. 63-69 (1990).).
Male NMRI mice weighing 30 to 35 grams were anesthetized with 2,2,2-tribromoethanol administered intraperitoneally in the dose of 500 mg/kg (20 ml/kg). During anesthesia, surgery was performed according to the surgical protocol of Welsh and coworkers (Welsh, F. A., Sakamoto, T., McKee, A., Sims, R. E.: Effect of lactacidosis on pyridine nucleotide stability during ischemia in mouse. J. Neurochem. 49: 846-851 (1987)). The distal part of the middle […] artery (MCA) was occluded with electric cauter. Test compounds were administered intraperitoneally 30 minutes after surgery in the dose of 0.1-0.3-1.0-3.0-10.0 mg/kg). After 48 hours, mice were anesthetised by 120 mg/kg sodium pentobarbital intraperitoneally. The brains were perfused through the left ventricle with 2 ml of 4% 2,3,5-triphenyl-tetrazolium-chloride (TTC) solution. After one hour, the brains was removed and placed into ice-cool saline for one to two minutes. Subsequently the brains were placed into 8% aqueous formaldehyde solution. After 24 hours, the area of white lesions was determined by a computerized image analysis software. The statistical evaluation was performed by variance analysis followed by Duncan-test.

5-HT2A receptors = molecular target: T2, 5-HT2A receptors (Rattus norvegicus, UniProt P14842); experiment: receptor-binding assay, 5-HT2A (3H-ketanserine, frontal cortex); details: for Ki: 3H-ketanserine 1.0 nM, frontal cortex
T2 construct: brain tissues from male Wistar rats weighing 120-200 g; from tissue
From the text: In the receptor-binding assays, brain tissues from male Wistar rats weighing 120-200 g or cloned human 5-HT6 or D4 receptors were used.
The basic information with regard the receptor-binding assay is disclosed in Table 1.

[2] = molecular target: T3, cloned human D4 receptors (Homo sapiens, UniProt P21917); experiment: receptor-binding assay, D4 (3H-YM-09151-2, SF9 cells); details: for Ki: 3H-YM-09151-2 0.28 nM, SF9 cells
T3 construct: expressed in transfected cells
T3 sequence (P21917 1-419): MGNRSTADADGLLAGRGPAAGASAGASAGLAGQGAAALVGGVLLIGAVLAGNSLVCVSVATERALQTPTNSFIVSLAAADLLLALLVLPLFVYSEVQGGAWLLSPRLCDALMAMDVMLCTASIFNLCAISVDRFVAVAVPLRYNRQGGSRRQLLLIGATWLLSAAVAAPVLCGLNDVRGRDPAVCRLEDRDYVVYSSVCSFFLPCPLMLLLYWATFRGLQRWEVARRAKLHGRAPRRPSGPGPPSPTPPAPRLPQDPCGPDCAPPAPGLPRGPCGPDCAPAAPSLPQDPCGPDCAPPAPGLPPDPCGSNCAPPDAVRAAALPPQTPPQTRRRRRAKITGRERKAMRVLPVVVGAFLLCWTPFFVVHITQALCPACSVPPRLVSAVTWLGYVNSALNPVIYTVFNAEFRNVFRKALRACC
Procedure: as §1, §2

male Wistar rats = experiment: Vogel's drinking conflict model (anxiolytic effect); format: in vivo, rat; details: ip., 30 minutes before the test, MED = minimum dose resulting in statistically significant effect
Procedure: Vogel's drinking conflict model was used for establishing the anxiolytic effect (Vogel at el., Psychopharmacologia, 21, 1, 1971). Male Wistar rats weighing 200 to 220 grams were restrained from drinking for 48 hours and deprived from feed for 24 hours prior to the experiment. The test substances or the vehicle were administered to the animals in a dose of 5.0-10.0-20.0 mg/kg intraperitoneally 30 minutes before the test. The test chamber was provided with a drinking tube which allowed the animals to drink. However, after each twentieth licking, the apparatus delivered a 0.7 mA electric shock to the animal. During the five-minute measurement period, the number of electric shocks was registered which the animals tolerated to appease their thirst. The effect of the test substance was expressed in the percentage increase in the number of tolerated electric shocks. The minimum effective dose (MED) was determined for each compound.

T2 sequence (P14842 whole entry): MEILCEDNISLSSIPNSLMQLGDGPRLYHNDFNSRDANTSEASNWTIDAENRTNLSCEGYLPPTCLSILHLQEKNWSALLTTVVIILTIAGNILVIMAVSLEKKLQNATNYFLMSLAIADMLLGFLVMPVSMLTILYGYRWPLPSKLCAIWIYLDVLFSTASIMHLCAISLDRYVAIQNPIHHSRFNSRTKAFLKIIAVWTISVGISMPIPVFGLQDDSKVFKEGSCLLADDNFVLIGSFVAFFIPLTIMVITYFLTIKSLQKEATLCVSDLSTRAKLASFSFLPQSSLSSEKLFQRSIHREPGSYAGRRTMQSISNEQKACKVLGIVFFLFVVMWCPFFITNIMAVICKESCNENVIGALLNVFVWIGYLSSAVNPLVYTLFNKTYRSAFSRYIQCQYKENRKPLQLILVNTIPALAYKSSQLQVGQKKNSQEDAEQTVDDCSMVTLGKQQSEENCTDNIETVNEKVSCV
T1 sequence (P50406 whole entry): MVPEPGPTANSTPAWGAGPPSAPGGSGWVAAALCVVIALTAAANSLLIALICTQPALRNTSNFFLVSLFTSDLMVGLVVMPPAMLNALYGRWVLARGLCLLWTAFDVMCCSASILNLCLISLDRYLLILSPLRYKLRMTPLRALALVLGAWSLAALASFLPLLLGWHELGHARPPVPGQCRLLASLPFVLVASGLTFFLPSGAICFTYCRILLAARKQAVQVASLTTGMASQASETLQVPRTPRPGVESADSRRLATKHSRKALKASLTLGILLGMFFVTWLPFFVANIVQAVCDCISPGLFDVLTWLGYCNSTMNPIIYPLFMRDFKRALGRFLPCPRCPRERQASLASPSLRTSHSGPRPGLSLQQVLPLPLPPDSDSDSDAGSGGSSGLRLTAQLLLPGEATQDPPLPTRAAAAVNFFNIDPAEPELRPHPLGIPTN

Row | SMILES | affinity towards central 5-HT6 receptors (in words) [1] | melting point | Porsolt-test (model for antidepressant effect), MED (male DBA mice) | Permanent cerebral ischemia model (model for neuroprotective effect), MED (male NMRI mice) | affinity to the central 5-HT2A receptors (in words) (5-HT2A receptors) | Ki (5-HT2A receptors) | affinity to the central D4 receptors (in words) [2] | Ki [2] | Vogel-test (model for anxiolytic effect), MED (male Wistar rats) | Vogel-test (model for anxiolytic effect), MED (male Wistar rats; listed as (−)-5,7-dichloro-3-{4-[4-(4-chlorophenyl)-piperazin-1-yl]butyl}-3-ethyl-1,3-dihy) | Ki [1] | antidepressant activity in Porsolt's test (in words) (male DBA mice; mice)
1 | CCC1(CCCCN2CCN(c3ccc(Cl)cc3)CC2)C(=O)Nc2c(Cl)cc(Cl)cc21 (single isomer, unassigned; (-)) [(−)-enantiomer of the Formula (I), (−)-5,7-dichloro-3-{4-[4-(4-chlorophenyl)-piperazin-1-yl]-butyl}-3-ethyl-1,3-dihydro-2H-indol-2-one] | not bound | 139 to 140 °C | No effect | 3 mg/kg and 3.0 mg/kg | affinity greater by several orders of magnitude | 0.042 µM | significant affinity | 0.013 µM | No effect | did not show any anxiolytic effect |  | 
2 | CCC1(CCCCN2CCN(c3ccc(Cl)cc3)CC2)C(=O)Nc2c(Cl)cc(Cl)cc21 (racemic) [Compound of the Formula (II), 5,7-dichloro-3-{4-[4-(4-chlorophenyl)-piperazin-1-yl]butyl}-3-ethyl-1,3-dihydro-2H-indol-2-one] | significant affinity | 152 to 154 °C | 3 mg/kg | 0.1 mg/kg | affinity greater by several orders of magnitude | 0.05 µM | did not show any significant binding | > 0.1 µM | 5 mg/kg |  | 0.009 µM | significant, dose-dependent antidepressant activity
3 | CCC1(CCCCN2CCN(c3ccc(Cl)cc3)CC2)C(=O)Nc2c(Cl)cc(Cl)cc21 (single isomer, unassigned; (+)) [(+)-enantiomer of the Formula (I), (+)-5,7-dichloro-3-{4-[4-(4-chlorophenyl)-piperazin-1-yl]butyl}-3-ethyl-1,3-dihydro-2H-indol-2-one] | significant affinity | 139 to 141 °C | No effect | ineffective; also recorded: No effect |  | > 0.2 µM |  | 0.035 µM | 10 mg/kg |  | 0.011 µM | 
